{"source": "paper PMC9544171", "about": "“Glucose‐dependent insulinotropic polypeptide receptor antagonist treatment causes a reduction in weight gain in ovariectomised high fat diet‐fed mice” (British Journal of Pharmacology, 2022)", "format_in_all_cases": "cell-based", "key": {"mouse GIP receptor [1]": {"molecular_target": "T1, mouse GIP receptor (Mus musculus, UniProt Q0P543)", "T1 construct": "host or cells: COS-7", "T1 sequence (Q0P543 19-460)": "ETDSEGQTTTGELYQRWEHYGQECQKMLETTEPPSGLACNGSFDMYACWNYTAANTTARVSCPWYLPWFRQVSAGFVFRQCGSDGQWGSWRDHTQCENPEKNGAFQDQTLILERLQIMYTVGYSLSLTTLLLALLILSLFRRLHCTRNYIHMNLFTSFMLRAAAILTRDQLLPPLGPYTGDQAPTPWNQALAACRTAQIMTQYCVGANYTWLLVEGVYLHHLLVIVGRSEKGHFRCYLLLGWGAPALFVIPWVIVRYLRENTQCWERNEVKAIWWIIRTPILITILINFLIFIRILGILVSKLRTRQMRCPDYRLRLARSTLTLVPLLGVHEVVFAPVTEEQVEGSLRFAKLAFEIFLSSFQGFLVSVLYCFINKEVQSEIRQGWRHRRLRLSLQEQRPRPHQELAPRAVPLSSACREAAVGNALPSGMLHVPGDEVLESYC", "assay": "cAMP accumulation, antagonism of mouse GIP(1‐42) in transfected COS‐7 cells", "protocol": "(§1) COS‐7 cells were cultured at 10% CO2 and 37°C in Dulbecco's Modified Eagle Medium 1885 supplemented with 10% foetal bovine serum, 2‐mM glutamine, 180‐units ml^−1 penicillin and […] streptomycin. Transient transfection of the cells with either human or mouse GIP receptor was performed using the calcium phosphate precipitation method as previously described (van der Velden et al., [2021]). A second set of cells was transiently transfected with either mouse GLP‐1 or GLP‐2 receptor. Following the day after transfection, the cells were seeded in white 96‐well plates with a density of 35.000 cells per well. The next day the assay was initiated by washing the cells with HEPES buffered saline (HBS) followed by an incubation step with HBS and 1‐mM 3‐isobutyl‐1‐methylxanthine for 30 min at 37°C. For agonist studies, the ligands were then added and incubated for an additional 30 min at 37°C. To test for antagonistic properties, the cells were first preincubated for 10 min with the antagonist with subsequent addition of the agonist and incubated for an additional 20 min. The HitHunter® cAMP assay (Eurofins DiscoverX, Fremont, USA) was carried out according to the manufacturer's protocol. Luminescence was measured by PerkinElmer™ Envision 2014 Multilabel Reader.\nTo facilitate comparisons of assay outputs (cAMP assays), the results (of duplicate measurements) were normalized, with the response to 10 pM of GIP(1‐42) set as 100%. All ligand concentrations are reported as log‐transformed. The IC50 log values can be found in Figure 1. In Figure 3c, we have subtracted glucose levels from baseline to show the net differences in glucose levels in our different treatment groups. […]\nResults are presented as mean ± SE. Data were analysed with one‐way and two‐way analysis of variance (ANOVA) with Tukey's or Sidak multiple comparisons test and Student's unpaired t tests where appropriate. […] For the in vitro data IC50 values were determined by nonlinear regression using GraphPad Prism 9 (San Diego, California, USA). […]"}, "human GIP receptor": {"molecular_target": "T2, human GIP receptor (Homo sapiens, UniProt P48546)", "T2 construct": "host or cells: COS-7", "T2 sequence (P48546 22-466)": "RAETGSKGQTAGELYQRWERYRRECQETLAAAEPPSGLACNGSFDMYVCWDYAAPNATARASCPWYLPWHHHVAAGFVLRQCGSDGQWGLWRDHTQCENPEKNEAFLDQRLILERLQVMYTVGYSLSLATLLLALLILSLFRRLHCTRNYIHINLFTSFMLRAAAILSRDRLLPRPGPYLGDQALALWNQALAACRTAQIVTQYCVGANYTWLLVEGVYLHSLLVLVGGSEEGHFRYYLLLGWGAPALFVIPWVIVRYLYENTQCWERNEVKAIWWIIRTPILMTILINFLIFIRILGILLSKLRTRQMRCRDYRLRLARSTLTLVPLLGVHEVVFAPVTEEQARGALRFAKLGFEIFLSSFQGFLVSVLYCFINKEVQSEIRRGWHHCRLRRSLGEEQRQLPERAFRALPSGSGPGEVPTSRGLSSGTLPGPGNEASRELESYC", "assay": "cAMP accumulation, agonism (intrinsic activity) in transfected COS‐7 cells", "conditions": "increasing concentrations of ligand alone, 30 min, COS‐7, n = 5", "protocol": "as §1\n(§2) To facilitate comparisons of assay outputs (cAMP assays), the results (of duplicate measurements) were normalized, with the response to 10 pM of GIP(1‐42) set as 100%. All ligand concentrations are reported as log‐transformed. The IC50 log values can be found in Figure 1. In Figure 3c, we have subtracted glucose levels from baseline to show the net differences in glucose levels in our different treatment groups.\n(§3) FIGURE 1 In vitro signalling profile of mGIPAnt‐1 on the mouse and human glucose‐dependent insulinotropic polypeptide receptor/(GIPR). COS‐7 cells were transiently transfected with (a) mouse GIPR or (b) human GIPR and assayed for cAMP accumulation. To test for agonism, increasing concentration of the ligand was added. […]"}, "mouse GIP receptor [2]": {"molecular_target": "T1, mouse GIP receptor", "assay": "cAMP accumulation, agonism (intrinsic activity) in transfected COS‐7 cells", "conditions": "increasing concentrations of ligand alone, 30 min, COS‐7, n = 5", "protocol": "as §1, §2, §3"}, "mouse GLP‐2 receptor": {"molecular_target": "T3, mouse GLP‐2 receptor (Mus musculus, UniProt Q5IXF8)", "T3 construct": "host or cells: COS-7", "T3 sequence (Q5IXF8 1-512)": "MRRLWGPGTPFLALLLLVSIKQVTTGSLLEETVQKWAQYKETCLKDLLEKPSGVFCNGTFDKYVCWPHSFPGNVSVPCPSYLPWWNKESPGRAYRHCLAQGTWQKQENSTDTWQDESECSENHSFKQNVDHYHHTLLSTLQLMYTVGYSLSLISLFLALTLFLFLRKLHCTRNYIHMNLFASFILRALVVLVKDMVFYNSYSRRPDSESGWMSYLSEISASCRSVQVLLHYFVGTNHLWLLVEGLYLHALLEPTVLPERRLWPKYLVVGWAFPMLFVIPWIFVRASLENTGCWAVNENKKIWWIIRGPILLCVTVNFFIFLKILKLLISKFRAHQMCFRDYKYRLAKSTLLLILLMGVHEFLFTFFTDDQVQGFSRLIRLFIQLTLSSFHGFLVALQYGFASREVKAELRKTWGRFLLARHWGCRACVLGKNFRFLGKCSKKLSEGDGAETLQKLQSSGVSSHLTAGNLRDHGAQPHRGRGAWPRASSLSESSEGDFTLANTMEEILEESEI", "assay": "cAMP accumulation, agonism in transfected COS‐7 cells", "conditions": "increasing concentrations, COS‐7, n = 5", "protocol": "as §1\nFIGURE 2 In vitro signalling profile of mGIPAnt‐1 on the mouse GLP‐1 and GLP‐2 receptor (R). […]"}}, "note": "Where a SMILES comes first, the peptide text is derived from it. The star is where a group is joined. C16 diacid = O=C(O)CCCCCCCCCCCCCCC(=O)*", "data": [{"smiles": "CC[C@H](C)[C@H](NC(=O)[C@H](CO)NC(=O)[C@H](Cc1ccc(O)cc1)NC(=O)[C@H](CC(=O)O)NC(=O)[C@H](CO)NC(=O)[C@@H](NC(=O)[C@H](Cc1ccccc1)NC(=O)[C@@H](NC(=O)CNC(=O)[C@@H](N)CCC(=O)O)[C@@H](C)O)[C@@H](C)CC)C(=O)N[C@@H](C)C(=O)N[C@@H](CCSC)C(=O)N[C@@H](CC(=O)O)C(=O)N[C@@H](CCCCN)C(=O)N[C@H](C(=O)N[C@@H](CCCCNC(=O)CCCCCCCCCCCCCCC(=O)O)C(=O)N[C@@H](CCC(N)=O)C(=O)N[C@@H](CCC(N)=O)C(=O)N[C@@H](CC(=O)O)C(=O)N[C@@H](Cc1ccccc1)C(=O)N[C@H](C(=O)N[C@@H](CC(N)=O)C(=O)N[C@@H](Cc1c[nH]c2ccccc12)C(=O)N[C@@H](CC(C)C)C(=O)N[C@@H](CC(C)C)C(=O)N[C@@H](C)C(=O)N[C@@H](CCC(N)=O)C(=O)N[C@@H](CCCCN)C(=O)NCC(=O)N[C@@H](CCCCN)C(=O)N[C@@H](CCCCN)C(=O)N[C@@H](CC(N)=O)C(=O)N[C@@H](CC(=O)O)C(=O)N[C@@H](Cc1c[nH]c2ccccc12)C(=O)N[C@@H](CCCCN)C(=O)N[C@@H](Cc1c[nH]cn1)C(=O)N[C@@H](CC(N)=O)C(=O)O)C(C)C)[C@@H](C)CC", "note": "[mGIPAnt‐1] (H-EGTFISDYSIAMDKIK(C16 diacid)QQDFVNWLLAQKGKKNDWKHN-OH)", "values": [{"measurement": "IC50", "setting": "mouse GIP receptor [1]; COS‐7 transiently transfected with mouse GIPR, 10 min preincubation with antagonist, then mouse GIP(1‐42) at 50%–80% of Emax for 20 min, HitHunter cAMP, Hill slope −1.0, n = 5 independent experiments, read-out: IC50, inhibition of mGIP‐induced cAMP accumulation, mouse GIPR", "value": 269, "unit": "nM"}, {"measurement": "potency relative to mGIP(3‐30)NH2 on the mouse GIP receptor", "setting": "mouse GIP receptor [1]; ratio of IC50 813 nM / 269 nM", "value": 3, "unit": "fold"}, {"measurement": "intrinsic activity (activation of human GIP receptor, cAMP)", "setting": "human GIP receptor", "value": "no activation"}, {"measurement": "intrinsic activity (activation of mouse GIP receptor, cAMP)", "setting": "mouse GIP receptor [2]", "value": "no activation"}, {"measurement": "activation of mouse GLP‐2 receptor (cAMP)", "setting": "mouse GLP‐2 receptor", "value": "does not induce activation"}]}]}
